Results from patent US20080085855A1, “Perivascular wraps” (Angiotech International AG, priority 2002, published 2008).

Legend:
intimal hyperplasia [1] = experiment: Rat balloon injury carotid artery model, paclitaxel containing mesh; format: in vivo; conditions: 1×1 cm paclitaxel-containing mesh (345 μg paclitaxel in 50:50 PLG coating on 10:90 PLG mesh), perivascular, 14 days after balloon injury
Experimental: Wistar rats weighing 400-500 g were anesthetized with 1.5% halothane in oxygen and the left external carotid artery was exposed. An A 2 French Fogarty balloon embolectomy catheter (Baxter, Irvine, Calif.) was advanced through an arteriotomy in the external carotid artery down the left common carotid artery to the aorta. The balloon was inflated with enough saline to generate slight resistance (approximately 0.02 ml) and it was withdrawn with a twisting motion to the carotid bifurcation. The balloon was then deflated and the procedure repeated twice more. This technique produced distension of the arterial wall and denudation of the endothelium. The external carotid artery was ligated after removal of the catheter. The right common carotid artery was not injured and was used as a control.
Immediately after injury of the left common carotid artery, a 1 cm long distal segment of the artery was exposed and treated with a 1×1 cm paclitaxel-containing mesh. The wound was then closed the animals were kept for 14 days.
At the time of sacrifice, the animals were euthanized with carbon dioxide and pressure perfused at 100 mmHg with 10% phosphate buffered formaldehyde for 15 minutes. Both carotid arteries were harvested and left overnight in fixative. The fixed arteries were processed and embedded in paraffin wax. […]

intimal hyperplasia [2] = experiment: Sheep carotid artery bypass graft (ePTFE) model, paclitaxel containing mesh; conditions: for Percent Change in Maximal Intimal Thickness / Percent Change in % Stenosis / Percent Change in Intimal Area: vs zero-dose mesh;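 as to all read-outs here: sheep with ePTFE carotid bypass grafts, PLG mesh wrapped at the distal anastomosis, histology of fixed graft and artery sections about 56 days after implantation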
Experimental: The left and right carotid arteries of anesthetized sheep were exposed by sharp dissection. A tunnel was formed from one carotid artery to the other to accommodate the ePTFE graft. The ePTFE graft was tunneled and trimmed for appropriate length and configuration. Using standard vascular technique, the ePTFE graft was anastomosed end-to-side with running 6-0 polypropylene suture. The angle of the junction between graft and native vessel was approximately 45°. The length of the implanted graft ranged from 9.5-15 cm (average 11 cm).
Paclitaxel was incorporated into the 2 cm×5 cm PLG mesh in the following doses and animal test groups: Group 1, 0 mg; Group 2, 0.6 mg; Group 3, 1.8 mg; and Group 4, 3.0 mg. The mesh was placed at the distal end of the graft at the anastomosis site. To place the mesh, the long side was pulled under the artery and up around either side of the distal end of the graft. One edge was positioned as close to the heel of the anastomosis as possible. The top edges of the mesh were sewn together with one suture on either side of the graft so that no gaps were left in the circumferential direction. One suture was placed at the proximal end and the other at the distal end of the mesh, and sewn to nearby connective tissue to prevent slippage of the mesh away from the anastomosis (see FIG. 6). The surgical sites were closed in layers with running absorbable sutures. Standard antibiotics and analgesics were administered after surgery for several days as required.
At approximately 56 days post-graft implant, animals were anesthetized. Contrast media was injected and angiograms performed of the distal graft and artery at the distal anastomosis. Immediately prior to euthanasia, the animals received heparin (150 U/kg, IV) and immediately after euthanasia, the ePTFE graft was rinsed in situ with lactated Ringers solution and perfusion-fixed in situ with 10% neutral buffered formalin (NBF). The specimens were excised en bloc and allowed to immersion fix in 10% NBF at least 24 hours prior to histological processing.
The fixed specimens were trimmed and mapped accurately for corresponding cross sectional location in reference to the ePTFE graft configuration. […] A total of nine sections were cut at the distal end of the graft: two cut perpendicular to the artery on either side of the anastomosis (A1 and A5), one perpendicular to the artery through the “toe” of the anastomosis (A2), one or two cut through the floor of the anastomosis adjacent to the “toe” (A3 and A4), three cut perpendicular to the graft at its distal end, and one through the center of the graft. Adjacent sections were cut at approximately 3 mm intervals. The specimens were paraffin-embedded, cross-sectioned, and four sets of slides made, two stained with hematoxylin and eosin (H&E), and one each stained with Masson's trichrome and Verhoeff Van Gieson (VVG). These stains were selected for their ability to show tissue cellularity (H&E), collagen, smooth muscle and fibrin (Masson's Trichrome), and elastin (VVG).
The morphometric analysis system consists of an Olympus BX40 microscope, Optronics Image Sensor DEI-750, Sony HR Trinitron monitor, and PC computer equipped with Media Cybernetics Image-Pro Plus software v.

[3] = Dose 0.6 (mg in PLG mesh, Group 2), Graft Section 6, approx. 56 days
[4] = Dose 0.6 (mg in PLG mesh, Group 2), Graft Section 7, approx. 56 days
[5] = Dose 0.6 (mg in PLG mesh, Group 2), Graft Section 8, approx. 56 days
[6] = Dose 1.8 (mg in PLG mesh, Group 3), Graft Section 6, approx. 56 days
[7] = Dose 1.8 (mg in PLG mesh, Group 3), Graft Section 7, approx. 56 days
[8] = Dose 1.8 (mg in PLG mesh, Group 3), Graft Section 8, approx. 56 days
[9] = Dose 3.0 (mg in PLG mesh, Group 4), Graft Section 6, approx. 56 days
[10] = Dose 3.0 (mg in PLG mesh, Group 4), Graft Section 7, approx. 56 days
[11] = Dose 3.0 (mg in PLG mesh, Group 4), Graft Section 8, approx. 56 days

## CC(=O)O[C@H]1C(=O)[C@@]2(C)[C@H]([C@H](OC(=O)c3ccccc3)[C@]3(O)C[C@H](OC(=O)[C@H](O)[C@@H](NC(=O)c4ccccc4)c4ccccc4)C(C)=C1C3(C)C)[C@]1(OC(C)=O)CO[C@@H]1C[C@@H]2O [Paclitaxel, paclitaxel]
Intimal hyperplasia [1]
  intimal hyperplasia (histology, FIGS. 3-5): dramatic reduction in intimal hyperplasia
Intimal hyperplasia [2]; Dose 0.6 (mg in 2 cm×5 cm PLG mesh, Group 2), Graft "Toe" Section 2, approx. 56 days
  Percent Change in Maximal Intimal Thickness: −5%
Intimal hyperplasia [2]; [3]
  Percent Change in % Stenosis: −59%^
  Percent Change in Intimal Area: −62%^
  Percent Change in Maximal Intimal Thickness: −71%^2
Intimal hyperplasia [2]; [4]
  Percent Change in % Stenosis: −66%^2
  Percent Change in Intimal Area: −67%^2
  Percent Change in Maximal Intimal Thickness: −65%
Intimal hyperplasia [2]; [5]
  Percent Change in % Stenosis: −75%^2
  Percent Change in Intimal Area: −77%
  Percent Change in Maximal Intimal Thickness: −59%
Intimal hyperplasia [2]; Dose 1.8 (mg in PLG mesh, Group 3), Graft "Toe" Section 2, approx. 56 days
  Percent Change in Maximal Intimal Thickness: −28%
Intimal hyperplasia [2]; [6]
  Percent Change in % Stenosis: −84%^2
  Percent Change in Intimal Area: −85%^2
  Percent Change in Maximal Intimal Thickness: −77%^2
Intimal hyperplasia [2]; [7]
  Percent Change in % Stenosis: −85%^2
  Percent Change in Intimal Area: −85%^2
  Percent Change in Maximal Intimal Thickness: −71%^2
Intimal hyperplasia [2]; [8]
  Percent Change in % Stenosis: −75%^2
  Percent Change in Intimal Area: −76%
  Percent Change in Maximal Intimal Thickness: −63%
Intimal hyperplasia [2]; Dose 3.0 (mg in PLG mesh, Group 4), Graft "Toe" Section 2, approx. 56 days
  Percent Change in Maximal Intimal Thickness: −34%
Intimal hyperplasia [2]; [9]
  Percent Change in % Stenosis: −81%^2
  Percent Change in Intimal Area: −82%^2
  Percent Change in Maximal Intimal Thickness: −74%^2
Intimal hyperplasia [2]; [10]
  Percent Change in % Stenosis: −79%^2
  Percent Change in Intimal Area: −80%^2
  Percent Change in Maximal Intimal Thickness: −69%
Intimal hyperplasia [2]; [11]
  Percent Change in % Stenosis: −86%^
  Percent Change in Intimal Area: −86%
  Percent Change in Maximal Intimal Thickness: −83%^2
Intimal hyperplasia [2]; Section 2 ("toe" section), high dose (3.0 mg), approx. 56 days
  MIT (maximal neointimal thickness), group average ±SD: 0.54±0.23 mm
Intimal hyperplasia [2]; Section 2 ("toe" section), high dose (3.0 mg), not statistically significant (p>0.05)
  MIT less than controls: 34%
Intimal hyperplasia [2]; Section 2 ("toe" section), low dose (0.6 mg), approx. 56 days
  MIT (maximal neointimal thickness), group average ±SD: 0.78±0.30 mm
Intimal hyperplasia [2]; Section 2 ("toe" section), low dose (0.6 mg), not statistically significant (p>0.05)
  MIT less than controls: 5%
Intimal hyperplasia [2]; Section 2 ("toe" section), mid dose (1.8 mg), approx. 56 days
  MIT (maximal neointimal thickness), group average ±SD: 0.59±0.14 mm
Intimal hyperplasia [2]; Section 2 ("toe" section), mid dose (1.8 mg), not statistically significant (p>0.05)
  MIT less than controls: 28%
Intimal hyperplasia [2]; dose range tested (0.6-3.0 mg in mesh)
  mechanical integrity of the anastomosis (leakage): does not affect the mechanical integrity of the anastomosis
Intimal hyperplasia [2]; doses tested (0.6-3.0 mg in mesh)
  Intraluminal endothelialization: not affected
Intimal hyperplasia [2]; lowest paclitaxel dose, 0.6 mg
  lesions causing luminal narrowing at the distal end of the graft: marked and signifimayt reduction
Intimal hyperplasia [2]; paclitaxel groups (0.6, 1.8, 3.0 mg), sections 6, 7, 8, 7 of 9 values significantly lower than controls (p≦0.05)
  reduction in stenosis: 70-80%
Intimal hyperplasia [2]; paclitaxel groups (0.6, 1.8, 3.0 mg), sections 6, 7, 8, vs control group
  IA (neointimal area) reduced: 70-80%
Intimal hyperplasia [2]; section 6 (first full cross section of graft adjacent to the distal anastomosis), low dose (0.6 mg), p<0.05
  MIT (maximal neointimal thickness), group average ±SD: 0.38±0.12 mm
Intimal hyperplasia [2]; section 6, high dose (3.0 mg), p<0.05
  MIT (maximal neointimal thickness), group average ±SD: 0.34±0.20 mm
Intimal hyperplasia [2]; section 6, medium dose (1.8 mg), p<0.05
  MIT (maximal neointimal thickness), group average ±SD: 0.31±0.29 mm
Intimal hyperplasia [2]; sections 7 and 8, all the paclitaxel groups (0.6, 1.8, 3.0 mg)
  MIT less than controls: approximately 70%
